Reference: patent US6677309B1, “Anti-cancer drug aldehyde conjugate drugs with enhanced cytotoxicity compounds, compositions and methods” (University Technology Corporation, priority 1997, dated 2004)

Key:
[1] = tested on: MCF-7 cells; assay: In vitro cytotoxicity, colony formation by crystal violet assay, MCF-7; settings: for fold less toxic than the next conjugate: EPIF versus DAUNF, DAUNF versus DOXF, both sensitive (MCF-7) and resistant (MCF-7/ADR) breast cancer cells
Method: The term IC50 as used herein refers to the concentration of drug which inhibits cell growth by 50%, i.e., 50% of cells are viable at the IC50 concentration relative to a no-drug control.
Cells were incubated with drug for 3 h in RPMI (Roswell Park Memorial Institute) 1640 media containing 10% fetal bovine serum and 1% DMSO. Plates, were developed using the crystal violet assay. […] In all cases percent survival was determined by the extent of colony formation six days after drug treatment.
All tissue culture materials were obtained from Gibco Life Technologies (Grand Island, N.Y.) unless otherwise stated. MCF-7 breast cancer cells were obtained from American Type Culture Collection (Rockville, Md.). […] Both cell lines were maintained in vitro by serial culture in phenol red-free RPMI Media 1640 supplemented with 10% fetal bovine serum (Gemini Bio-Products, Calbasas, Calif.), L-glutamine (2 mM), HEPES buffer (10 mM), penicillin (100 units/mL), and streptomycin (100 μg/mL). […] Cells were maintained at 37° C. in a humidified atmosphere of 5% CO2 and 95% air.
Cells were dissociated with trypsin-EDTA, counted, and suspended in growth media to a concentration of 5×10^3 cells/mL. Cell suspensions were dispensed in 200 μL aliquots into 96-well tissue culture plates. Plates were then incubated for 24 h at 37° C. in a humidified atmosphere of 5% CO2 and 95% air. The media was replaced with 180 μL of growth media prior to addition of the cytotoxic agents.
Concentrations were then corrected by measuring the solution absorbance at 480 nm (ε=11,500/mole anthracycline). The solutions were then serially diluted in DMSO to give a series of 100× working concentration solutions. For each concentration, the 100× solution was diluted 1:10 in serum-free RPMI Media 1640. 20 μL of the resulting […] solution was immediately added to the appropriate lane. Additionally, one lane was treated with 20 μL of 10% DMSO in serum-free RPMI (no drug) and one lane replaced with 200 μL of 1.5 M Tris buffer (no cells). The cells were incubated at 37° C. for 3 h. The drug solutions were removed and 200 μL of fresh growth media was added to each well.
The extent of colony formation was determined by use of a crystal violet staining assay (Gilles, R. J. et al. (1986), “Determination of cell number in monolayer cultures,” Anal. Biochem. 159:109-113; Reile, H. et al. (1990), “Computerized determination of growth kinetic curves and doubling times from cells in microcultures,” Anal. Biochem. 187:262-267). […] The cells were then stained with 75 μL of 0.1% crystal violet in deionized water for 30 min. […] The plates were blotted dry and 200 μL of 70% ethanol in water was added to each well to solublize the dye. The plates were stored at 4° C. until solubilization was complete (about 4 h). The optical density of each well was measured on an ELISA plate reader at 588 nm. Relative colony sizes were determined by comparison of the drug treated lanes to the control lanes.
MCF-7 breast cancer cells were obtained from American Type Culture Collection (Rockville, Md.). MCF-7/ADR adriamycin resistant breast cancer cells were a gift of Dr. William W. Wells (Michigan State University). Both cell lines were maintained in vitro by serial culture in phenol red-free RPMI Media 1640 supplemented with 10% fetal bovine serum (Gemini Bio-Products, Calbasas, Calif.), L-glutamine (2 mM), HEPES buffer ([…]), penicillin (100 units/mL), and streptomycin (100 μg/mL). […] Cells were maintained at 37° C. in a humidified atmosphere of 5% CO2 and 95% air.
1640 media containing 10% fetal bovine serum. The resulting 90% media/10% DMSO solutions (v/v) were incubated at 37° C. for 6h.

[2] = Stability in DMSO and DMSO/water, NMR or HPLC; format: physicochemical
Method: Crystalline dimeric formaldehyde conjugate of daunorubicin (2.8 mg, 2.6 μmol) was dissolved in 500 μL of DMSO-d6 (stored over 3 A molecular sieves) and analyzed by 400 MHz, ^1H NMR. […] Upon addition of 25 μL of D2O to the 500 μL DMSO-d6 sample, the dimeric formaldehyde conjugate of daunorubicin reacted over a 24 h period to form an equilibrium mixture consisting of 67% dimeric formaldehyde conjugate of daunorubicin and 32% of an intermediate. Because of the complexity of the spectrum, a structure could not be assigned to the intermediate; however, the intermediate appeared to have an oxazolidine ring. Upon addition of 3 equiv of hydrochloric acid in 130 μL of deuterium oxide, hydrolysis to daunorubicin-HCl was complete. The hydrochloric acid solution was prepared by the addition of 10 μL of concentrated HCl to 990 μL of D2O. The formaldehyde released from the dimeric formaldehyde conjugate of daunorubicin was detected as its hydrate. The final product was identified as daunorubicin by comparison of the NMR spectrum with that of a sample of daunorubicin plus 3 equiv of HCl. Further, the final product was isolated by removal of all volatile components under vacuum (0.1 Torr), and its ^1H NMR spectrum was identical to that of daunorubicin-HCl.
Amorphous dimeric formaldehyde conjugate of daunorubicin, when worked up in methylene chloride, was stable in DMSO for at least 4 days. It hydrolyzed with added D2O and hydrochloric acid in a manner similar to that of the crystalline material. When worked up in chloroform, amorphous dimeric formaldehyde conjugate of daunorubicin had less stability in DMSO, presumably due to traces of HCl from the chloroform.
A 1.3 mg sample of N-acetyl-3′-N,4′-O-methylenedaunorubicin was dissolved in […] of DMSO and analyzed over time by HPLC. […] At this time, […] of water was added to the DMSO/N-acetyl monomeric formaldehyde conjugate of daunorubicin solution, establishing a 50:50 DMSO:water mixture (v/v). In this solution, the N-acetyl-3′-N,4′-O-methylenedaunorubicin remained 91% intact (9% degradation to daunorubicin) over a period of 6 days, based upon the HPLC analysis.
A pH 6 triethyl ammonium acetate solution containing 13.1 μmol of epidoxorubicin-HCl and 6.6 mmol of […] was allowed to react in the dark at 25° C. for 30 min. The mixture was then extracted with chloroform with vigorous stirring for 20 min. The chloroform solution was dried over sodium sulfate and the chloroform removed by rotary evaporation. The resulting dry solid was redissolved in 1.0 mL of chloroform. To this was added 10 mL of n-hexane. After 2 days, a large amount of precipitate had formed, which was washed with 3×5 mL of n-hexane, followed by 4×1 mL of water.
The sample was maintained at ambient temperature for 2 h; after this period no change in the spectrum was observed. […] A stock 122 mM solution of HCl in D2O was prepared by adding concentrated hydrochloric acid to D2O. […] Complete hydrolysis occurred upon addition of ca. 2-3 equiv of HCl. A similar experiment was performed using HCl in H2O. […] This solution was incubated at 37° C. for 24 h prior to NMR analysis.

| Compound | fold less toxic than the next conjugate [1] | IC50 ([1]; read-out: IC50 Values, MCF-7, 3 h drug incubation in RPMI 1640, 10% fetal bovine serum, 1% DMSO, colony formation six days after treatment, fresh drug solution) [nM] | times more cytotoxic against the MCF-7 cell line than the parent drug ([1]; relative to daunorubicin and doxorubicin, respectively) [times] | fold more toxic to MCF-7 cells than the parent drug ([1]; relative to the respective parent drug) [fold] | share of conjugate in the equilibrium mixture ([2]; 25 μL D2O added to 500 μL DMSO-d6, over 24 h, NMR) [%] | time stable in DMSO ([2]; crystalline material in DMSO-d6 stored over molecular sieves, 1H NMR) | time stable in DMSO ([2]; dry DMSO / DMSO-d6, 1H NMR) |
| --- | --- | --- | --- | --- | --- | --- | --- |
| COc1cccc2c1C(=O)c1c(O)c3c(c(O)c1C2=O)C[C@@](O)(C(C)=O)C[C@@H]3O[C@H]1C[C@H]2[C@H](OCN2CN2CO[C@@H]3[C@H](C)O[C@@H](O[C@H]4C[C@](O)(C(C)=O)Cc5c(O)c6c(c(O)c54)C(=O)c4c(OC)cccc4C6=O)C[C@@H]32)[C@H](C)O1 [DAUNF, bis(3′-N-(3′-N,4′-O-methylenedaunorubicinyl))methane] | approximately 7 fold | 4 | 7 | 7 | 67 | at least 14 h | at least 4 days |
| COc1cccc2c1C(=O)c1c(O)c3c(c(O)c1C2=O)CC(O)(C(=O)CO)CC3OC1CC2C(OCN3CN2COC2C(C)OC(OC4C[C@](O)(C(=O)CO)Cc5c(O)c6c(c(O)c54)C(=O)c4c(OC)cccc4C6=O)CC23)C(C)O1 (stereo partly drawn) [EPIF] | approximately 7 fold | – | – | – | – | – | at least 4 days |
